Assays:
Test in all cases: Post-emergence foliar-applied herbicidal mixtures, greenhouse visual weed control
Type in all cases: in vivo
[1] = test system: ECHCG (Echinochloa crusgalli (L.) Beauv., barnyardgrass)
Source text: (§1) Seeds of the desired test plant species were planted in a potting media, Metro-mix 360, a peat based potting soil. Metro-mix consists of 35 to 45% specially processed coconutcoir pith, 10 to 20% horticultural grade vermiculite, 15 to 25% processed ash bark, 20 to 30% choice Canadian sphagnum peat moss and proprietary nutrients and other ingredients. When required to ensure good germination and healthy plants, a fungicide treatment and/or other chemical treatment was applied. The plants were grown for 8-16 days in a greenhouse with an approximate 14 h photoperiod which was maintained at about 29° C. during the day and 26° C. during the night. Nutrients (Peters Excel® 15-5-15 5-Ca 2-Mg and iron chelate) were applied in the irrigation solution as needed and water was added on a regular basis. Supplemental lighting was provided with overhead metal halide 1000-Watt lamps as necessary. The plants were sprayed when they reached the second through fourth true leaf stage.
(§2) Treatments consisted of the benzyl ester of 4-amino-3-chloro-5-fluoro-6-(4-chloro-2-fluoro-3-methoxy-phenyl)pyridine-2-carboxylic acid (II), formulated as an SC (suspension concentrate), GF-2978 containing 125.8 g ai/L of active ingredient, and various herbicidal components alone and in combination. The benzyl ester of formula (II) was applied on an active ingredient basis.
(§3) Other herbicidal components were applied on an active ingredient basis and included 4-hydroxyphenyl pyruvate dioxygenase (HPPD)-inhibiting herbicides tembotrione formulated as Laudis, an SC formulation containing 420 g ai/L of tembotrione, or topramezone formulated as Armezon, an SC formulation containing 335.8 g ai/L of topramezone. All treatments were applied with Prime Oil, (crop oil concentrate) at 1% v/v.
(§4) Treatment requirements were calculated based upon the rates being tested, the concentration of active ingredient or acid equivalent in the formulation, for a 30 ml volume based off of an application rate of 200 L/ha. Appropriate amounts of formulated product as calculated by the software package ARM8 (Gylling Data Management Inc.) were added to 60 ml glass vials and diluted with Indianapolis tap water and Prime Oil at 1% v/v. Treatments were applied with Generation III Research Track-Sprayer manufactured by DeVries Manufacturing in Hollandale, Minn., USA, located in building 306, room E1-483, at the Dow AgroSciences Global headquarters in Indianapolis, Ind. US. The track sprayer was calibrated to deliver 200 L/ha utilizing an 8003E even fan spray nozzle at 40 psi (276 kPa) at a speed of 2 mph (3.25 km/hr) and a spray height of 18 to 20 inches (46 to 50 cm) above average plant canopy height.
(§5) The treated plants and control plants were placed in a greenhouse as described above and watered by sub-irrigation to prevent wash-off of the test compounds. […], the condition of the test plants as compared with that of the untreated plants was determined visually and scored on a scale of 0 to 100 percent where 0 corresponds to no injury or growth inhibition and 100 corresponds to complete kill. The Colby method was used to determine the herbicidal effects expected from the mixtures.

[2] = test system: AMAPA (Amaranthus palmeri, Palmer amaranth)
Source text: as §1, §2, §3, §4, §5

[3] = test system: IPOHE (Ipomoea hederacea (L.) Jacq., ivyleaf morningglory)
Source text: as §1, §2, §3, §4, §5

[4] = test system: AMARE (Amaranthus retroflexus, redroot pigweed)
Source text: as §1, §2, §3, §4
The treated plants and control plants were placed in a greenhouse as described above and watered by sub-irrigation to prevent wash-off of the test compounds. […] the untreated plants was determined visually and scored on a scale of 0 to 100 percent where 0 corresponds to no injury or growth inhibition and 100 corresponds to complete kill. The Colby method was used to determine the herbicidal effects expected from the mixtures.

[5] = Compound II 2.5 gai/ha, Tembotrione 0 gai/ha
[6] = Compound II 2.5 gai/ha, Topramezone 0 gai/ha
[7] = Compound II 5 gai/ha, Topramezone 0 gai/ha
[8] = Compound II 7.5 gai/ha, Topramezone 0 gai/ha
[9] = Compound II 15 gai/ha, Topramezone 0 gai/ha
[10] = Compound II 0 gai/ha, Tembotrione 46 gai/ha
[11] = Compound II 0 gai/ha, Topramezone 3 gai/ha
[12] = Compound II 0 gai/ha, Topramezone 6 gai/ha
[13] = Compound II 0 gai/ha, Topramezone 24 gai/ha
[14] = Compound II 0 gai/ha, Topramezone 12 gai/ha

**Q.** `COc1c(Cl)ccc(-c2nc(C(=O)OCc3ccccc3)c(Cl)c(N)c2F)c1F` [Compound II, benzyl 4-amino-3-chloro-6-(4-chloro-2-fluoro-3-methoxyphenyl)-5-fluoropyridine-2-carboxylate] was tested. Which “Visual Weed Control (%) - 5 DAA ECHCG Obs” value [1, 5] did it give?
**A.** Its value is 22.5%.

**Q.** And the “Visual Weed Control (%) - 5 DAA ECHCG Obs” value [1, 6]?
**A.** The value was 22.5%.

**Q.** And the “Visual Weed Control (%) - 5 DAA ECHCG Obs” value [1, 7]?
**A.** Its value is 53.75%.

**Q.** What about the “Visual Weed Control (%) - 5 DAA ECHCG Obs” value [1, 8] of the same compound?
**A.** The value was 55%.

**Q.** What about the “Visual Weed Control (%) - 5 DAA ECHCG Obs” value [1, 9] of the same compound?
**A.** Its value is 65%.

**Q.** And the “Visual Weed Control (%) - 12 DAA ECHCG Obs” value [1, 7]?
**A.** The value was 61.25%.

**Q.** What about the “Visual Weed Control (%) - 12 DAA ECHCG Obs” value [1, 8] of the same compound?
**A.** The value was 70.75%.

**Q.** And the “Visual Weed Control (%) - 12 DAA AMAPA Obs” value [2, 5]?
**A.** The value was 75%.

**Q.** What about the “Visual Weed Control (%) - 12 DAA AMAPA Obs” value [2, 6] of the same compound?
**A.** The value was 75%.

**Q.** And the “Visual Weed Control (%) - 12 DAA AMAPA Obs” value ([2]; Compound II 5 gai/ha, Tembotrione 0 gai/ha)?
**A.** The value was 73.33%.

**Q.** What about the “Visual Weed Control (%) - 12 DAA AMAPA Obs” value [2, 7] of the same compound?
**A.** Its value is 73.33%.

**Q.** And the “Visual Weed Control (%) - 12 DAA AMAPA Obs” value [2, 8]?
**A.** The value was 85%.

**Q.** What about the “Visual Weed Control (%) - 12 DAA AMAPA Obs” value ([2]; Compound II 15 gai/ha, Tembotrione 0 gai/ha) of the same compound?
**A.** The value was 80%.

**Q.** What about the “Visual Weed Control (%) - 12 DAA AMAPA Obs” value [2, 9] of the same compound?
**A.** Its value is 80%.

**Q.** What about the “Visual Weed Control (%) - 5 DAA IPOHE Obs” value [3, 6] of the same compound?
**A.** Its value is 51.25%.

**Q.** What about the “Visual Weed Control (%) - 5 DAA IPOHE Obs” value [3, 7] of the same compound?
**A.** Its value is 62.5%.

**Q.** And the “Visual Weed Control (%) - 5 DAA IPOHE Obs” value [3, 8]?
**A.** The value was 61.25%.

**Q.** What about the “Visual Weed Control (%) - 5 DAA IPOHE Obs” value [3, 9] of the same compound?
**A.** Its value is 55.75%.

**Q.** And the “Visual Weed Control (%) - 5 DAA AMARE Obs” value [4, 9]?
**A.** The value was 73%.

**Q.** What about the “Visual Weed Control (%) - 12 DAA AMARE Obs” value [4, 5] of the same compound?
**A.** The value was 61.25%.

**Q.** What about the “Visual Weed Control (%) - 12 DAA AMARE Obs” value [4, 6] of the same compound?
**A.** Its value is 61.25%.

**Q.** What about the “Visual Weed Control (%) - 12 DAA AMARE Obs” value [4, 7] of the same compound?
**A.** Its value is 65.75%.

**Q.** What about the “Visual Weed Control (%) - 12 DAA AMARE Obs” value ([4]; Compound II 7.5 gai/ha, Tembotrione 0 gai/ha) of the same compound?
**A.** The value was 75%.

**Q.** What about the “Visual Weed Control (%) - 12 DAA AMARE Obs” value [4, 8] of the same compound?
**A.** Its value is 75%.

**Q.** Which “Visual Weed Control (%) - 5 DAA ECHCG Obs” value [1, 10] does the source give for `CS(=O)(=O)c1ccc(C(=O)C2C(=O)CCCC2=O)c(Cl)c1COCC(F)(F)F` [Tembotrione, 2-[2-chloro-4-(methylsulfonyl)-3-[(2,2,2-trifluoroethoxy)methyl]benzoyl]-1,3-cyclohexanedione] here?
**A.** The value was 57.5%.

**Q.** What about the “Visual Weed Control (%) - 12 DAA AMAPA Obs” value ([2]; Compound II 0 gai/ha, Tembotrione 5.75 gai/ha) of the same compound?
**A.** The value was 44.33%.

**Q.** And the “Visual Weed Control (%) - 12 DAA AMAPA Obs” value ([2]; Compound II 0 gai/ha, Tembotrione 11.5 gai/ha)?
**A.** Its value is 50%.

**Q.** What about the “Visual Weed Control (%) - 12 DAA AMAPA Obs” value ([2]; Compound II 0 gai/ha, Tembotrione 23 gai/ha) of the same compound?
**A.** Its value is 66%.

**Q.** What about the “Visual Weed Control (%) - 12 DAA AMARE Obs” value [4, 10] of the same compound?
**A.** The value was 43.75%.

**Q.** For `Cc1c(C(=O)c2cnn(C)c2O)ccc(S(C)(=O)=O)c1C1=NOCC1` [Topramezone, [3-(4,5-dihydro-3-isoxazolyl)-2-methyl-4-(methylsulfonyl)phenyl](5-hydroxy-1-methyl-1H-pyrazol-4-yl)methanone], which “Visual Weed Control (%) - 5 DAA ECHCG Obs” value [1, 11] is on record?
**A.** Its value is 0.75%.

**Q.** And the “Visual Weed Control (%) - 5 DAA ECHCG Obs” value [1, 12]?
**A.** Its value is 6.25%.

**Q.** What about the “Visual Weed Control (%) - 5 DAA ECHCG Obs” value [1, 13] of the same compound?
**A.** Its value is 51.25%.

**Q.** What about the “Visual Weed Control (%) - 12 DAA ECHCG Obs” value [1, 11] of the same compound?
**A.** Its value is 0%.

**Q.** What about the “Visual Weed Control (%) - 12 DAA ECHCG Obs” value [1, 12] of the same compound?
**A.** The value was 1.25%.

**Q.** What about the “Visual Weed Control (%) - 12 DAA ECHCG Obs” value [1, 14] of the same compound?
**A.** The value was 36.25%.

**Q.** And the “Visual Weed Control (%) - 12 DAA AMAPA Obs” value [2, 11]?
**A.** The value was 86.67%.

**Q.** What about the “Visual Weed Control (%) - 12 DAA AMAPA Obs” value [2, 12] of the same compound?
**A.** The value was 75%.

**Q.** What about the “Visual Weed Control (%) - 5 DAA IPOHE Obs” value [3, 11] of the same compound?
**A.** Its value is 6.25%.

**Q.** What about the “Visual Weed Control (%) - 5 DAA IPOHE Obs” value [3, 12] of the same compound?
**A.** Its value is 6.25%.

**Q.** And the “Visual Weed Control (%) - 5 DAA IPOHE Obs” value [3, 14]?
**A.** Its value is 8.75%.

**Q.** What about the “Visual Weed Control (%) - 5 DAA IPOHE Obs” value [3, 13] of the same compound?
**A.** Its value is 33.25%.

**Q.** What about the “Visual Weed Control (%) - 5 DAA AMARE Obs” value [4, 13] of the same compound?
**A.** The value was 50.75%.

**Q.** And the “Visual Weed Control (%) - 12 DAA AMARE Obs” value [4, 12]?
**A.** Its value is 52.5%.

**Q.** What about the “Visual Weed Control (%) - 12 DAA AMARE Obs” value [4, 14] of the same compound?
**A.** The value was 77.5%.
